Like-named read-outs stand apart in the source and are kept apart here.
Tests used:
fish species = conditions: 96 h static; ECHA database, mg/L converted to -log M; cited from earlier work
[1] = test system: water flea (Daphnia magna); conditions: 48 h static, immobilization; ECHA database, converted to -log M; cited from earlier work
[2] = assay type: physicochemical; conditions: IAM PC.DD2 column, pH 7.4, acetonitrile gradient, UV filters
[3] = cited from earlier work; for CHIIAM (predetermined): calibration set, established by isocratic measurement; for CHIIAM: pharmaceuticals used for model construction (training set)

Structure (SMILES)	pEC50 water flea (Daphnia magna), Experimental [1]	CHIIAM (chromatographic phospholipid binding) [2]	CHIIAM [3]	also measured
Nc1ccc(C(=O)O)cc1 [4-Aminobenzoic Acid, 4-aminobenzoic acid]	3.26	3.30	–	pLC50 fish, Experimental (fish species): 2.12; CHIIAM (chromatographic phospholipid binding) ([2]; listed as aminobenzoic acid): < 20
CC(=O)c1ccccc1 [Acetophenone]	–	–	–	CHIIAM (predetermined) [3]: 17.2
CN(C)CCC=C1c2ccccc2CCc2ccccc21 [Amitriptyline]	–	–	55.3	–
CC1(C)S[C@@H]2[C@H](NC(=O)[C@H](N)c3ccccc3)C(=O)N2[C@H]1C(=O)O [Ampicillin]	–	–	10.5	–
COc1ccc(C(=O)CC(=O)c2ccc(C(C)(C)C)cc2)cc1 [Avobenzone, avobenzone]	5.20	53.4	–	CHIIAM (chromatographic phospholipid binding) ([2]; listed as avobenzone): > 45
CCCC(=O)c1ccccc1 [Butyrophenone]	–	–	–	CHIIAM (predetermined) [3]: 32.0
NC(=O)N1c2ccccc2C=Cc2ccccc21 [Carbamazepine]	–	–	26.9	–
O=C(O)Cc1ccccc1Nc1c(Cl)cccc1Cl [Diclofenac]	–	–	34.1	–
COc1ccc([C@@H]2Sc3ccccc3N(CCN(C)C)C(=O)[C@@H]2OC(C)=O)cc1 [Diltiazem]	–	–	42.0	–
COc1ccc(C(=O)c2ccccc2O)c(O)c1 [Dioxybenzone, dioxybenzone]	4.76	39.9	–	–
O=S(=O)(O)c1ccc2[nH]c(-c3ccccc3)nc2c1 [Ensulizole, ensulizole]	3.44	13.2	–	pLC50 fish, Experimental (fish species): 2.91; CHIIAM (chromatographic phospholipid binding) ([2]; listed as ensulizole): < 20
Cc1ccc(C)c(OCCCC(C)(C)C(=O)O)c1 [Gemfibrozil]	–	–	33.7	–
CCCCCCC(=O)c1ccccc1 [Heptanophenone]	–	–	–	CHIIAM (predetermined) [3]: 45.7
CCCCCC(=O)c1ccccc1 [Hexanophenone]	–	–	–	CHIIAM (predetermined) [3]: 41.8
CC1CC(OC(=O)c2ccccc2O)CC(C)(C)C1 (centres unmarked) [Homosalate, homosalate]	–	56.8	–	CHIIAM (chromatographic phospholipid binding) ([2]; listed as homosalate): > 45
CC1CCC(C(C)C)C(OC(=O)c2ccccc2N)C1 (centres unmarked) [Meradimate, meradimate]	5.24	56.9	–	pLC50 fish, Experimental (fish species): 4.48; CHIIAM (chromatographic phospholipid binding) ([2]; listed as meradimate): > 45
COCCc1ccc(OCC(O)CNC(C)C)cc1 (centres unmarked) [Metoprolol]	–	–	35.4	–

Structure (SMILES)	pEC50 water flea (Daphnia magna), Experimental [1]	CHIIAM (chromatographic phospholipid binding) [2]	CHIIAM [3]	also measured
Cc1ncc([N+](=O)[O-])n1CCO [Metronidazole]	–	–	-4.81	–
CCCCCCCC(=O)c1ccccc1 [Octanophenone]	–	–	–	CHIIAM (predetermined) [3]: 49.4
CCCCC(CC)COC(=O)C=Cc1ccc(OC)cc1 (centres unmarked) [Octinoxate, octinoxate]	5.03	54.2	–	CHIIAM (chromatographic phospholipid binding) ([2]; listed as octinoxate): > 45
CCCCC(CC)COC(=O)c1ccccc1O (centres unmarked) [Octisalate, octisalate]	5.58	55.1	–	pLC50 fish, Experimental (fish species): 4.40; CHIIAM (chromatographic phospholipid binding) ([2]; listed as octisalate): > 45
CCCCC(CC)COC(=O)C(C#N)=C(c1ccccc1)c1ccccc1 (centres unmarked) [Octocrylene, octocrylene]	5.06	60.0	–	pLC50 fish, Experimental (fish species): 5.65; CHIIAM (chromatographic phospholipid binding) ([2]; listed as octocrylene): > 45
CC1COc2c(N3CCN(C)CC3)c(F)cc3c(=O)c(C(=O)O)cn1c23 (centres unmarked) [Ofloxacin]	–	–	28.9	–
COc1ccc(C(=O)c2ccccc2)c(O)c1 [Oxybenzone, oxybenzone]	4.92	40.8	–	pLC50 fish, Experimental (fish species): 4.78
CCCCC(CC)COC(=O)c1ccc(N(C)C)cc1 (centres unmarked) [Padimate O, padimate O]	4.69	53.6	–	pLC50 fish, Experimental (fish species): 4.85
CCC(=O)c1ccccc1 [Propiophenone]	–	–	–	CHIIAM (predetermined) [3]: 25.9
CCc1nc(N)nc(N)c1-c1ccc(Cl)cc1 [Pyrimethamine]	–	–	38.2	–
Nc1ccc(S(=O)(=O)Nc2ccc(Cl)nn2)cc1 [Sulfachlorpyridazine]	–	–	7.67	–
COc1cc(NS(=O)(=O)c2ccc(N)cc2)nc(OC)n1 [Sulfadimethoxine]	–	–	13.8	–
COc1ccc(NS(=O)(=O)c2ccc(N)cc2)nn1 [Sulfamethoxypyridazine]	–	–	10.9	–
Nc1ccc(S(=O)(=O)Nc2nccs2)cc1 [Sulfathiazole]	–	–	11.0	–
COc1cc(O)c(C(=O)c2ccccc2)cc1S(=O)(=O)O [Sulisobenzone, sulisobenzone]	3.79	14.3	–	pLC50 fish, Experimental (fish species): 2.69; CHIIAM (chromatographic phospholipid binding) ([2]; listed as sulisobenzone): < 20
Cn1c(=O)c2[nH]cnc2n(C)c1=O [Theophylline]	–	–	1.80	–
CCCCC(=O)c1ccccc1 [Valerophenone]	–	–	–	CHIIAM (predetermined) [3]: 37.3

— paper PMC11542717 (ADMET & DMPK, 2024)
